In patent US20190116833A1, “FEED ADDITIVE COMPOSITIONS” (priority 2017, published 2019):
Marks after values point to notes of the source that are not given here.

Tests used:
[1] = Post-weaning pig growth performance, SMBS vs SMBS + formulated yeast, 2-phase feeding (Example 7); type: in vivo
Excerpt: A total of 972 pigs were used to determine the effect of sodium metabisulfite (SMBS) or SMBS plus formulated yeast on weanling pig growth performance. Upon arrival pigs were sorted to pens with 27 pigs per pen. Pigs were weighed on pen basis. Pens within block were randomly assigned to one of 3 dietary treatments (1 control and 2 experimental diets; Table 17) in a randomized complete block design. This will result in 12 pens for each treatment for evaluation of growth performance, fecal scores, and health status.
This experiment was conducted for approximately 22 days in a 2-phase feeding program (Table 18) immediately after weaning. Feed was provided through the FeedLogic® system allowing collection of feed intake data by pen.

[2] = Growth performance of early weaned pigs, SMBS titration (Example 3); type: in vivo; conditions: in words
Excerpt: A total of 1,296 weanling pigs were used to determine the impact of […] on growth performance in 19 to 20 day old pigs. The ratio of same-sow source pens was equalized within treatments. The number of barrows and gilts was balanced within the pen (either 13 […] or 14 […] per pen). Upon arrival weanling pigs were sorted to pens (48 pens with 27 pigs per pen) and weighed as a complete pen of pigs. Pens within block were randomly assigned to one of 4 dietary treatments (1 control and 3 experimental diets; Table 6) in a randomized complete block design. Diets containing testing products were made by mixing the testing products into the basal diet (Table 7).
Pig weights were taken at placement and at the end of each diet phase (day 9 and 23). Feed weights were collected daily and the data was used to calculate ADG, ADFI and F/G for both diet phases and for the entire experimental period (23 days). Blood samples were on day 0 and 23 of the study from one barrow in each pen. Each pen was selected at the beginning of the study, identified with an ear tag, and sampled again at the end of the study. 8.5 mL blood was collected and allowed to clot on ice for at least 1.5 hr and centrifuged at 2,000×g for 13 min (4° C.). Fecal scores for each pen were collected on d 3, 5, 7, and 10 using the following scale: 0=none; 1=mild; 2=substantial; 3=severe (Citation 1: Marquardt et al., 1999).

O=S([O-])S(=O)(=O)[O-].[Na+].[Na+] [SMBS, sodium metabisulfite]
ADFI ([1]; Phase 1 + 2, 22 days): 0.78^cd lb/day | ADG ([1]; Phase 1 + 2, 22 days): 0.54 lb/day | ADG, change versus Control ([1]; Phase 1 + 2, 22 days): (+10.2%)^b | F:G ([1]; Phase 1 + 2, 22 days): 1.45 | F:G, change versus Control ([1]; Phase 1 + 2, 22 days): (−6.5%)^b | Mortality ([1]; Phase 1 + 2, 22 days): 0.6% | Total removal ([1]; Phase 1 + 2, 22 days): 2.2% | ADFI ([1]; Phase 1, 8 days): 0.46 lb/day | ADG ([1]; Phase 1, 8 days): 0.16^d lb/day | G:F ([1]; Phase 1, 8 days): 0.35^d | ADFI ([1]; Phase 2, 14 days): 0.96^ab lb/day | ADG ([1]; Phase 2, 14 days): 0.76^b lb/day | F:G ([1]; Phase 2, 14 days): 1.27^b | BW end of Phase 1 ([1]; end of Phase 1, 8 days): 13.4 lb | BW end of Phase 2 ([1]; end of Phase 2, 14 days): 24.1^b lb | Start BW ([1]; start of experiment (baseline)): 11.8 lb | ADG and F/G ([2]; increasing levels, both phases of the study): linear (P<0.05) improvements | ADG ([2]; titrating from 0 to 10 lb/ton): Linear increase | F/G ([2]; titrating from 0 to 10 lb/ton): Linear decrease
